Measured values taken from PMC4667193 (Scientific Reports, 2015).

Target: T1, Rat M5 mAChR (Rattus norvegicus, UniProt P08911)
T1 construct: host or cells: CHO (CHO-K1) cells
T1 sequence (P08911 1-531): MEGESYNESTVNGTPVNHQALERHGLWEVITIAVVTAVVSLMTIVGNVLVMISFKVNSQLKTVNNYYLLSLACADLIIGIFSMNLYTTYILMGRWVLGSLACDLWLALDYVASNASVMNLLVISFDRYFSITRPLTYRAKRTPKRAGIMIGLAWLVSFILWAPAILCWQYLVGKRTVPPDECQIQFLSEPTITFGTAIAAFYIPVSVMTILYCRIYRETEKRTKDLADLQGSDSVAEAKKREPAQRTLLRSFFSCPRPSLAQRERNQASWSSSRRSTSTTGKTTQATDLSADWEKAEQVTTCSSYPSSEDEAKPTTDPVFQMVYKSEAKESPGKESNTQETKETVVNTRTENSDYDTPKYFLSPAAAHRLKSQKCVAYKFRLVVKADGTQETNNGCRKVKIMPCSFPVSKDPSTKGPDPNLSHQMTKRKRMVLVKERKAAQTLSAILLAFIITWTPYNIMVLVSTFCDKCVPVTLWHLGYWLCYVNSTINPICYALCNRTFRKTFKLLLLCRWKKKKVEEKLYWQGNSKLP
Assay: calcium mobilization assay in CHO cells, incl. Schild analysis
Assay type: cell-based
Procedure: CHO cells expressing rM1, rM3 and rM5 were plated at 4 × 10^4 cells per well, whereas rM2 and rM4 were plated at 6 × 10^4 cells per well, in standard growth media (as described previously under “cell culture”) in 96-well plates 24 hours before assay and were incubated overnight at 37 °C in 5% CO2. […] Cells were incubated for 45 minutes (37 °C, 5% CO2) for dye loading. Fluo4-AM dye was removed, cells were washed and replaced with 40 μL of calcium assay buffer. AEME concentration-response curves were determined in single-add experiments. […] All compounds were dissolved in dimethyl sulfoxide (DMSO) and then in calcium assay buffer to obtain a final DMSO concentration of 0.3%. […] These values were fit using GraphPad Prism version 5.0 to determine EC50 values and Schild slope and pA2 in the Schild analyses.

[1] = rat M5, AEME 10^−6 to 10^−3.5 M vs acetylcholine

COC(=O)C1=CC[C@@H]2CC[C@H]1N2C [AEME, anhydroecgonine methyl ester]
mechanism of action (rat M5, 100 μM AEME on ACh curve): antagonized the effects of ACh
Schild slope [1]: 0.95 ± 0.07
pA2 (antagonist affinity, Schild analysis) [1]: 4.87 ± 0.10
calcium increase (rat M5, agonist mode): no calcium increase
